This is an account of results in US7772180B2, “Hepatitis C virus inhibitors” (Bristol-Myers Squibb Company, priority 2006, dated 2010).

Assay [1] has as its target T1, HCV NS3/4A protease complex, BMS strain (UniProt P27958, species not given/STRAIN_BMS).
T1 construct: other: NS3/4A BMS strain; activity range class; numeric values, unit not given; said of H77 and J4L6S; fused on or other part: A three-lysine solubilising tail at the C-terminus of NS4A; A His tag is implied by the pET21b vector and Ni-NTA purification; Both are printed for the H77 and J4L6S constructs and apply to BMS by inference
In words: FRET peptide assay to monitor HCV NS3/4A proteolytic activity (BMS strain). The assay is classed as biochemical, Hepatitis C virus (genotype 1a). The conditions noted are these: read-out: HCV Protease (IC50); NS3/4A BMS strain; activity range class. The method, boiled down: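 Purified recombinant NS3/4A complex from genotype 1a BMS strain, 2-3 nM final, with RET S1 EDANS/DABCYL depsipeptide substrate at 2 μM final in HEPES pH 7.5, NaCl, Triton, glycerol, βME. Cleavage followed in real time by fluorescence. For high-potency compounds: 50 μg/ml BSA added, protease lowered to 300 pM.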

Assay [2] has as its system HCV replicon (strain 1b) in HUH-7 cells. The assay is described as follows: HCV replicon FRET assay. The conditions noted are these: Hepatitis C virus, Huh-7, read-out: HCV Pro Replicon (EC50), HCV replicon cell assay; activity range class. The assay is classed as cell-based, Hepatitis C virus. (In general: A replicon is a self-replicating genome or part of one, used to study replication in cells.)

A word on the IC50: it is the midpoint of a concentration-inhibition curve. The term EC50 denotes the concentration needed to bring the measured effect to its halfway point.

T1 sequence (P27958 1027-1657, change not shown, one chain of several): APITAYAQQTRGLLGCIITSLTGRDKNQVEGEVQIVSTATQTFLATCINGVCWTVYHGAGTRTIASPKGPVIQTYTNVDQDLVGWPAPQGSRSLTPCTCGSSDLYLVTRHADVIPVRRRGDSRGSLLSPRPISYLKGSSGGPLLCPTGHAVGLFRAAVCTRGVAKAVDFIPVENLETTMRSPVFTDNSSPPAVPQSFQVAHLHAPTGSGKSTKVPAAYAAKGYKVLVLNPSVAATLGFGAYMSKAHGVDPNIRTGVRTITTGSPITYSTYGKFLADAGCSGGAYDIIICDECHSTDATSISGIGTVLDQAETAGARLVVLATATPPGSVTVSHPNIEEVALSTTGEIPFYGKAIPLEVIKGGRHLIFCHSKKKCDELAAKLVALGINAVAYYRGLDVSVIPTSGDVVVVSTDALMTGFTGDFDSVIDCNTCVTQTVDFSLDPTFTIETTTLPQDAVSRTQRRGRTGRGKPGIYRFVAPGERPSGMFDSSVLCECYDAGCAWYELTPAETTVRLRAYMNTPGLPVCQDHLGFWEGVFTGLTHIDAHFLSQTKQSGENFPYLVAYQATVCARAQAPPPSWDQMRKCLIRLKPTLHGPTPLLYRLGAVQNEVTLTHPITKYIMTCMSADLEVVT

Take `C=C[C@@H]1C[C@]1(NC(=O)[C@@H]1C[C@@H](Oc2ncc(OC)c3ccc(Cl)cc23)CN1C(=O)[C@@H](Nc1ccc(F)c(F)c1)C(C)(C)C)C(=O)NS(=O)(=O)C1CC1` [220 first isomer, N-(3,4-difluorophenyl)-3-methyl-L-valyl-(4R)-4-((7-chloro-4-methoxy-1-isoquinolinyl)oxy)-N-((1R,2S)-1-((cyclopropylsulfonyl)carbamoyl)-2-vinylcyclopropyl)-L-prolinamide]: the IC50 in assay [1] lay in the range of 0.6 to 20 nM. Also, the EC50 in assay [2] was in the range of 3 to 100 nM.

With `C=C[C@@H]1C[C@]1(NC(=O)[C@@H]1C[C@@H](Oc2ncc(OC)c3ccc(Cl)cc23)CN1C(=O)[C@H](Nc1ccc(F)c(F)c1)C(C)(C)C)C(=O)NS(=O)(=O)C1CC1` [220 second isomer, N-(3,4-difluorophenyl)-3-methyl-D-valyl-(4R)-4-((7-chloro-4-methoxy-1-isoquinolinyl)oxy)-N-((1R,2S)-1-((cyclopropylsulfonyl)carbamoyl)-2-vinylcyclopropyl)-L-prolinamide], the IC50 in assay [1] is above 200 nM. Moreover, the half-maximal effective concentration (EC50) in assay [2] is 100 to 1000 nM.

Turning to `C=C[C@@H]1C[C@]1(NC(=O)[C@@H]1C[C@@H](Oc2ncc(OC)c3ccc(Cl)cc23)CN1C(=O)[C@@H](Nc1ccc(C(=O)N(C)C)cc1)C(C)(C)C)C(=O)NS(=O)(=O)C1CC1` [221 first isomer, N-(4-(dimethylcarbamoyl)phenyl)-3-methyl-L-valyl-(4R)-4-((7-chloro-4-methoxy-1-isoquinolinyl)oxy)-N-((1R,2S)-1-((cyclopropylsulfonyl)carbamoyl)-2-vinylcyclopropyl)-L-prolinamide], the IC50 in assay [1] lay within 0.6 to 20 nM. In assay [2], the EC50 was in the range of 100 to 1000 nM.

As for `C=C[C@@H]1C[C@]1(NC(=O)[C@@H]1C[C@@H](Oc2ncc(OC)c3ccc(Cl)cc23)CN1C(=O)[C@H](Nc1ccc(C(=O)N(C)C)cc1)C(C)(C)C)C(=O)NS(=O)(=O)C1CC1` [221 second isomer, N-(4-(dimethylcarbamoyl)phenyl)-3-methyl-D-valyl-(4R)-4-((7-chloro-4-methoxy-1-isoquinolinyl)oxy)-N-((1R,2S)-1-((cyclopropylsulfonyl)carbamoyl)-2-vinylcyclopropyl)-L-prolinamide], the IC50 in assay [1] lay within 20 to 200 nM. In addition, the EC50 in assay [2] was above 1000 nM.

Consider `C=C[C@@H]1C[C@]1(NC(=O)[C@@H]1C[C@@H](Oc2ncc(OC)c3ccc(Cl)cc23)CN1C(=O)[C@@H](Nc1ccc(S(=O)(=O)NCC)cc1)C(C)(C)C)C(=O)NS(=O)(=O)C1CC1` [223 first isomer, N-(4-(ethylsulfamoyl)phenyl)-3-methyl-L-valyl-(4R)-4-((7-chloro-4-methoxy-1-isoquinolinyl)oxy)-N-((1R,2S)-1-((cyclopropylsulfonyl)carbamoyl)-2-vinylcyclopropyl)-L-prolinamide], for which the IC50 in assay [1] lay in the range of 0.6 to 20 nM. Also, the EC50 in assay [2] is 100 to 1000 nM.

Regarding `C=C[C@@H]1C[C@]1(NC(=O)[C@@H]1C[C@@H](Oc2ncc(OC)c3ccc(Cl)cc23)CN1C(=O)[C@H](Nc1ccc(S(=O)(=O)NCC)cc1)C(C)(C)C)C(=O)NS(=O)(=O)C1CC1` [223 second isomer, N-(4-(ethylsulfamoyl)phenyl)-3-methyl-D-valyl-(4R)-4-((7-chloro-4-methoxy-1-isoquinolinyl)oxy)-N-((1R,2S)-1-((cyclopropylsulfonyl)carbamoyl)-2-vinylcyclopropyl)-L-prolinamide], in assay [1], the IC50 is above 200 nM. For the same compound, in assay [2], the concentration for a half-maximal effect (EC50) is above 1000 nM.

Turning to `C=C[C@@H]1C[C@]1(NC(=O)[C@@H]1C[C@@H](Oc2ncc(OC)c3ccc(Cl)cc23)CN1C(=O)[C@@H](Nc1ccc(S(=O)(=O)N(C)C)cc1)C(C)(C)C)C(=O)NS(=O)(=O)C1CC1` [224 first isomer, N-(4-(dimethylsulfamoyl)phenyl)-3-methyl-L-valyl-(4R)-4-((7-chloro-4-methoxy-1-isoquinolinyl)oxy)-N-((1R,2S)-1-((cyclopropylsulfonyl)carbamoyl)-2-vinylcyclopropyl)-L-prolinamide], in assay [1], the half-maximal inhibitory concentration (IC50) lay within 0.6 to 20 nM. Moreover, the EC50 in assay [2] fell in the range of 100 to 1000 nM.

With `C=C[C@@H]1C[C@]1(NC(=O)[C@@H]1C[C@@H](Oc2ncc(OC)c3ccc(Cl)cc23)CN1C(=O)[C@H](Nc1ccc(S(=O)(=O)N(C)C)cc1)C(C)(C)C)C(=O)NS(=O)(=O)C1CC1` [224 second isomer, N-(4-(dimethylsulfamoyl)phenyl)-3-methyl-D-valyl-(4R)-4-((7-chloro-4-methoxy-1-isoquinolinyl)oxy)-N-((1R,2S)-1-((cyclopropylsulfonyl)carbamoyl)-2-vinylcyclopropyl)-L-prolinamide], the IC50 in assay [1] is above 200 nM. For the same compound, the EC50 in assay [2] was 100 to 1000 nM.

Regarding `C=C[C@@H]1C[C@]1(NC(=O)[C@@H]1C[C@@H](Oc2ncc(OC)c3ccc(Cl)cc23)CN1C(=O)[C@@H](Nc1ccc(C(N)=O)cc1)C(C)(C)C)C(=O)NS(=O)(=O)C1CC1` [226 first isomer, N-(4-carbamoylphenyl)-3-methyl-L-valyl-(4R)-4-((7-chloro-4-methoxy-1-isoquinolinyl)oxy)-N-((1R,2S)-1-((cyclopropylsulfonyl)carbamoyl)-2-vinylcyclopropyl)-L-prolinamide], the IC50 in assay [1] lay in the range of 0.6 to 20 nM. Moreover, the EC50 in assay [2] was 3 to 100 nM.

As for `C=C[C@@H]1C[C@]1(NC(=O)[C@@H]1C[C@@H](Oc2ncc(OC)c3ccc(Cl)cc23)CN1C(=O)[C@@H](Nc1cccc(S(=O)(=O)NC)c1)C(C)(C)C)C(=O)NS(=O)(=O)C1CC1` [227 first isomer, 3-methyl-N-(3-(methylsulfamoyl)phenyl)-L-valyl-(4R)-4-((7-chloro-4-methoxy-1-isoquinolinyl)oxy)-N-((1R,2S)-1-((cyclopropylsulfonyl)carbamoyl)-2-vinylcyclopropyl)-L-prolinamide], the IC50 in assay [1] was 0.6 to 20 nM. Besides, the EC50 in assay [2] lay within 3 to 100 nM.

In the case of `C=C[C@@H]1C[C@]1(NC(=O)[C@@H]1C[C@@H](Oc2ncc(OC)c3ccc(Cl)cc23)CN1C(=O)[C@H](Nc1cccc(S(=O)(=O)NC)c1)C(C)(C)C)C(=O)NS(=O)(=O)C1CC1` [227 second isomer, 3-methyl-N-(3-(methylsulfamoyl)phenyl)-D-valyl-(4R)-4-((7-chloro-4-methoxy-1-isoquinolinyl)oxy)-N-((1R,2S)-1-((cyclopropylsulfonyl)carbamoyl)-2-vinylcyclopropyl)-L-prolinamide], the IC50 in assay [1] is above 200 nM. In assay [2], the EC50 is above 1000 nM.

On to `C=C[C@@H]1C[C@]1(NC(=O)[C@@H]1C[C@@H](Oc2ncc(OC)c3ccc(Cl)cc23)CN1C(=O)[C@@H](Nc1cccc(C(=O)OC(C)C)c1)C(C)(C)C)C(=O)NS(=O)(=O)C1CC1` [231 first isomer, N-(3-(isopropoxycarbonyl)phenyl)-3-methyl-L-valyl-(4R)-4-((7-chloro-4-methoxy-1-isoquinolinyl)oxy)-N-((1R,2S)-1-((cyclopropylsulfonyl)carbamoyl)-2-vinylcyclopropyl)-L-prolinamide], for which, in assay [1], the half-inhibitory concentration (IC50) fell in the range of 0.6 to 20 nM. Further, the EC50 in assay [2] fell in the range of 3 to 100 nM.

Take `C=C[C@@H]1C[C@]1(NC(=O)[C@@H]1C[C@@H](Oc2ncc(OC)c3ccc(Cl)cc23)CN1C(=O)[C@H](Nc1cccc(C(=O)OC(C)C)c1)C(C)(C)C)C(=O)NS(=O)(=O)C1CC1` [231 second isomer, N-(3-(isopropoxycarbonyl)phenyl)-3-methyl-D-valyl-(4R)-4-((7-chloro-4-methoxy-1-isoquinolinyl)oxy)-N-((1R,2S)-1-((cyclopropylsulfonyl)carbamoyl)-2-vinylcyclopropyl)-L-prolinamide]: the half-inhibitory concentration (IC50) in assay [1] is above 200 nM. Also, in assay [2], the half-maximal effective concentration (EC50) is above 1000 nM.

For `C=C[C@@H]1C[C@]1(NC(=O)[C@@H]1C[C@@H](Oc2ncc(OC)c3ccc(Cl)cc23)CN1C(=O)[C@@H](Nc1cccc(C(=O)OC)c1)C(C)(C)C)C(=O)NS(=O)(=O)C1CC1` [232 first isomer, N-(3-(methoxycarbonyl)phenyl)-3-methyl-L-valyl-(4R)-4-((7-chloro-4-methoxy-1-isoquinolinyl)oxy)-N-((1R,2S)-1-((cyclopropylsulfonyl)carbamoyl)-2-vinylcyclopropyl)-L-prolinamide], in assay [1], the IC50 lay within 0.6 to 20 nM. In addition, in assay [2], the EC50 is 3 to 100 nM.

Take `C=C[C@@H]1C[C@]1(NC(=O)[C@@H]1C[C@@H](Oc2ncc(OC)c3ccc(Cl)cc23)CN1C(=O)[C@H](Nc1cccc(C(=O)OC)c1)C(C)(C)C)C(=O)NS(=O)(=O)C1CC1` [232 second isomer, N-(3-(methoxycarbonyl)phenyl)-3-methyl-D-valyl-(4R)-4-((7-chloro-4-methoxy-1-isoquinolinyl)oxy)-N-((1R,2S)-1-((cyclopropylsulfonyl)carbamoyl)-2-vinylcyclopropyl)-L-prolinamide]: the IC50 in assay [1] is 20 to 200 nM. Also, the EC50 in assay [2] was 3 to 100 nM.

On to `C=C[C@@H]1C[C@]1(NC(=O)[C@@H]1C[C@@H](Oc2ncc(OC)c3ccc(Cl)cc23)CN1C(=O)[C@@H](Nc1ccccc1F)C(C)(C)C)C(=O)NS(=O)(=O)C1CC1` [234 first isomer, N-(2-fluorophenyl)-3-methyl-L-valyl-(4R)-4-[(7-chloro-4-methoxy-1-isoquinolinyl)oxy]-N-((1R,2S)-1-{[(cyclopropylsulfonyl)amino]carbonyl}-2-vinylcyclopropyl)-L-prolinamide], for which the IC50 in assay [1] was in the range of 20 to 200 nM. Moreover, the EC50 in assay [2] lay in the range of 100 to 1000 nM.

Regarding `C=C[C@@H]1C[C@]1(NC(=O)[C@@H]1C[C@@H](Oc2ncc(OC)c3ccc(Cl)cc23)CN1C(=O)[C@H](Nc1ccccc1F)C(C)(C)C)C(=O)NS(=O)(=O)C1CC1` [234 second isomer, N-(2-fluorophenyl)-3-methyl-D-valyl-(4R)-4-[(7-chloro-4-methoxy-1-isoquinolinyl)oxy]-N-((1R,2S)-1-{[(cyclopropylsulfonyl)amino]carbonyl}-2-vinylcyclopropyl)-L-prolinamide], the IC50 in assay [1] was above 200 nM. For the same compound, in assay [2], the EC50 is above 1000 nM.
